Experiments:
[1] = Protein binding test (equilibrium dialysis, unbound fraction in serum); type: in vitro ADME; settings: 37° C.
Protocol: The unbound fraction of the present compound in serum was measured using serum of various species.
The reactive conditions are as follows: Evaluation method, Equilibrium dialysis; Reaction time, 24 hours; Reaction temperature, 37° C.; Concentration of the present compound, 2 μg/mL
The test solution was added to each serum and the mixture was agitated to prepare the serum samples at the concentration mentioned above. Each serum sample was added into one side of the cell and phosphate buffered saline (PBS) was added into the other side to perform equilibrium dialysis at 37° C. for 24 hours. Then, the concentration of the compounds in the samples that were obtained from both sides was measured by LC/MS/MS.
The ratio of PBS concentration to serum concentration is expressed as unbound fraction (fu),

[2] = biological target: human P2X3 receptor (Homo sapiens (Human), UniProt P56373); experiment: Evaluation of human P2X3 receptor inhibitory activity (FLIPR Ca fluorescence, ATP-evoked); type: cell-based; settings: C6BU-1 cells stably expressing human P2X3 receptor
Protocol: Stably expressing cell line (C6BU-1 cell transfected with human P2X3 receptor gene (GenBank accession number Y07683) was used. The cells were seeded in a 384-well PDL-coated microtiter plate at a concentration of 3000 cells/well and cultured in the medium (8.3% fetal bovine serum, 8.3% horse serum, and 1% antibiotic and antifungal in DMEM) for one day at 37° C. under 5% carbon dioxide atmosphere. The medium was replaced with 4 μM Fluo-3-AM solution (20 mM HEPES, 137 mM NaCl, 2.7 mM KCl, 0.9 mM MgCl2, 5.0 mM CaCl2, 5.6 mM D-glucose, 2.5 mM probenecid, 0.5% BSA, and 0.04% Pluronic P-127, pH 7.5) and incubated at 37° C. under 5% dioxide carbon atmosphere for one hour. The plate was washed with washing buffer (20 mM HEPES, 137 mM NaCl, 2.7 mM KCl, 0.9 mM MgCl2, 5.0 mM CaCl2, 5.6 mM D-glucose, 2.5 mM probenecid, pH 7.5), and each well was added with 20 μL of the washing buffer. The plate was placed in High-Throughput Screening System FLIPR 384 (Molecular Device Co.). Measurement of fluorescence intensity by […] was started, and 20 μL of DMSO solutions containing different concentrations of the test compound as prepared by dilution with dilution buffer (20 mM HEPES, 137 mM NaCl, 2.7 mM KCl, 0.9 mM MgCl2, 5.0 mM CaCl2, 5.6 mM D-glucose, 2.5 mM probenecid, 0.1% Pluronic F-127, pH 7.5) were dispensed to each well through the built-in automatic dispenser. Five minutes after, 150 nM ATP solution (25 μL) prepared by dilution with the dilution buffer was dispensed through the built-in automatic dispenser, and the measurement of fluorescence intensity was continued for 4 min. For each well, the specific maximum fluorescence intensity was calculated as the ratio of the maximum fluorescence intensity after addition of the ATP solution to the fluorescence intensity at the starting of the measurement. […] The specific maximum fluorescence intensify and IC50 were calculated using Spotfire (Science & Technology Systems. Inc.)

Sequence of human P2X3 receptor (P56373 whole entry): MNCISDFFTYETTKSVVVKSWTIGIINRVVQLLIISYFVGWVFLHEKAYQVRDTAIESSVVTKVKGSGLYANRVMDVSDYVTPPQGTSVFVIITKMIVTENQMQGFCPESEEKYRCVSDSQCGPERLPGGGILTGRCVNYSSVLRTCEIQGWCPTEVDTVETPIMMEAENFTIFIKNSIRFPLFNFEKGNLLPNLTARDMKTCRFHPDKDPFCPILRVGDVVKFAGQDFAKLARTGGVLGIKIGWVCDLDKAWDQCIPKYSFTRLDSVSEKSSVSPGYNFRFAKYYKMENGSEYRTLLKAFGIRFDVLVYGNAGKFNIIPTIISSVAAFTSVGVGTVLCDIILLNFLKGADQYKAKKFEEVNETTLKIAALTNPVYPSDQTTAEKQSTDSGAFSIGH

Cc1ccc(Cn2c(=O)n(C[C@H](C)C(=O)O)c(=O)[nH]/c2=N\c2ccc(Oc3ccc(F)cn3)cc2)cc1 [Compound I-040]
fraction unbound at 24 h, 2 μg/mL [1]: 0.035 | IC50 [2]: 6 nM
